Assay results: the supplement of paper PMC11061612

Key:
Assay in all cases: combination Emax (second highest fraction inhibited in the dose matrix, 72 h); higher = more inhibition; extreme values may be limits of the assay
[1] = system: BHT-101 (Thyroid Gland Carcinoma)
In short: (§1)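 After 24 hours at 37°C and 5% CO2 in 1536-well plates, cells in DMEM/F12 or RPMI plus 10% FBS received two-drug dose matrices for 72 hours. Viability came from CellTiter-Glo 2.0 luminescence and was scaled as inhibition, anchored at 0 by vehicle wells and at 1 by blank wells. Combination Emax is taken as the second-highest inhibition in the matrix, and Bliss excess as the observed combination effect less EA + EB − EA·EB, with EA and EB the single-agent effects.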

[2] = system: CPC-N (Small Cell Lung Carcinoma)
In short: as §1

ES6 (Ewing's Sarcoma) = system: ES6 (Ewing's Sarcoma)
In short: as §1

GAK (Melanoma) = system: GAK (Melanoma)
In short: as §1

[3] = system: IA-LM (Non-Small Cell Lung Carcinoma)
In short: as §1

[4] = system: KP-4 (Pancreatic Carcinoma)
In short: as §1

[5] = system: LCLC-103H (Non-Small Cell Lung Carcinoma)
In short: as §1

[6] = system: MDA-MB-415 (Breast Carcinoma)
In short: as §1

[7] = system: MOLT-13 (T-Lymphoblastic Leukemia)
In short: as §1

[8] = system: MONO-MAC-6 (Acute Myeloid Leukemia)
In short: as §1

[9] = system: NCI-H1876 (Small Cell Lung Carcinoma)
In short: as §1

[10] = system: NCI-H1963 (Small Cell Lung Carcinoma)
In short: as §1

NCI-H226 (Mesothelioma) = system: NCI-H226 (Mesothelioma)
In short: as §1

[11] = system: NCI-H596 (Other Solid Carcinomas)
In short: as §1

[12] = system: OVCAR-3 (Ovarian Carcinoma)
In short: as §1

[13] = system: PA-TU-8988T (Pancreatic Carcinoma)
In short: as §1

[14] = system: SCC-4 (Oral Cavity Carcinoma)
In short: as §1

[15] = system: SK-CO-1 (Colorectal Carcinoma)
In short: as §1

SK-N-SH (Neuroblastoma) = system: SK-N-SH (Neuroblastoma)
In short: as §1

[16] = system: SNU-407 (Colorectal Carcinoma)
In short: as §1

Row | Compound | combination Emax [1] | combination Emax [2] | combination Emax (ES6 (Ewing's Sarcoma)) | combination Emax (GAK (Melanoma)) | combination Emax [3] | combination Emax [4] | combination Emax [5] | combination Emax [6] | combination Emax [7] | combination Emax [8] | combination Emax [9] | combination Emax [10] | combination Emax (NCI-H226 (Mesothelioma)) | combination Emax [11] | combination Emax [12] | combination Emax [13] | combination Emax [14] | combination Emax [15] | combination Emax (SK-N-SH (Neuroblastoma)) | combination Emax [16]
1 | CC(=O)Nc1cccc(-n2c(=O)n(C3CC3)c(=O)c3c(Nc4ccc(I)cc4F)n(C)c(=O)c(C)c32)c1 [Trametinib] + Cc1nc(-c2cn3c(n2)-c2ccc(-c4cnn(C(C)(C)C(N)=O)c4)cc2OCC3)n(C(C)C)n1 [Taselisib] (first compound max 1 µM, 7x7, partner max 10 µM) | 1 | 0.362 | 0.607 | 0.985 | 0.486 | 0.694 | 0.539 | 0.848 | 0.698 | 1 | 0.796 | 0.435 | 0.327 | 0.81 | 0.652 | 0.762 | 0.992 | 1 | 0.827 | 0.905
2 | CC1(C)CCC(CN2CCN(c3ccc(C(=O)NS(=O)(=O)c4ccc(NCC5CCOCC5)c([N+](=O)[O-])c4)c(Oc4cnc5[nH]ccc5c4)c3)CC2)=C(c2ccc(Cl)cc2)C1 [Venetoclax] + C1CN(CCC1(C(=O)N[C@@H](CCO)C2=CC=C(C=C2)Cl)N)C3=NC=NC4=C3C=CN4 [Capivasertib] (first compound max 1 µM, 7x7, partner max 3 µM) | 0.214 | 0.84 | 0.47 | 0.152 | 0.189 | 0.0982 | 0.238 | 0.663 | 0.566 | 0.704 | 0.259 | 0.775 | 0.241 | 0.334 | 0.161 | 0.219 | 0.23 | 0.187 | 0.394 | 0.388
3 | CC1(C)CCC(CN2CCN(c3ccc(C(=O)NS(=O)(=O)c4ccc(NCC5CCOCC5)c([N+](=O)[O-])c4)c(Oc4cnc5[nH]ccc5c4)c3)CC2)=C(c2ccc(Cl)cc2)C1 [Venetoclax] + C=CCn1c(=O)c2cnc(Nc3ccc(N4CCN(C)CC4)cc3)nc2n1-c1cccc(C(C)(C)O)n1 [AZD1775] (first compound max 1 µM, partner max 1 µM) | 0.489 | 0.964 | 0.513 | 0.792 | 0.36 | 0.56 | 0.394 | 0.206 | 1 | 0.992 | 0.994 | 0.973 | 0.268 | 0.259 | 0.63 | 0.728 | 0.637 | 0.569 | 0.889 | 0.558
4 | CC1(C)CCC(CN2CCN(c3ccc(C(=O)NS(=O)(=O)c4ccc(NCC5CCOCC5)c([N+](=O)[O-])c4)c(Oc4cnc5[nH]ccc5c4)c3)CC2)=C(c2ccc(Cl)cc2)C1 [Venetoclax] + CCN(CCO)CCCOc1ccc2c(Nc3cc(CC(=O)Nc4cccc(F)c4)[nH]n3)ncnc2c1 [AZD2811] (first compound max 1 µM, 7x7, partner max 1 µM) | 0.157 | 0.942 | 0.32 | 0.242 | 0.249 | 0.322 | 0.333 | 0.231 | 1 | 0.981 | 0.742 | 0.893 | 0.158 | 0.207 | 0.194 | 0.0634 | 0.429 | 0.583 | 0.73 | 0.485
5 | CC1(C)CCC(CN2CCN(c3ccc(C(=O)NS(=O)(=O)c4ccc(NCC5CCOCC5)c([N+](=O)[O-])c4)c(Oc4cnc5[nH]ccc5c4)c3)CC2)=C(c2ccc(Cl)cc2)C1 [Venetoclax] + CN(C)CCCOc1ccc(-c2ccc3ncc4c(c3c2)n(C2CCOCC2)c(=O)n4C)cn1 [AZD0156] (first compound max 1 µM, 7x7, partner max 1 µM) | 0.246 | 0.78 | 0.349 | 0.293 | 0.217 | 0.21 | 0.285 | 0.262 | 0.718 | 0.619 | 0.282 | 0.565 | 0.212 | 0.232 | 0.119 | 0.179 | 0.358 | 0.271 | 0.394 | 0.234
